PubChem BioAssay (NCI)
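Values below derive from 48-hour exposures of cells grown in 96-well plates, with endpoints linearly interpolated between the two concentrations bracketing the appropriate inhibition level. TGI denotes the concentration required for complete inhibition of growth.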

Assays:
Test in all cases: NCI anticancer screen, dose series, 48 h
T-47D breast = tested on: T-47D breast
OVCAR-3 ovarian = tested on: OVCAR-3 ovarian
MOLT-4 leukemia = tested on: MOLT-4 leukemia
HCT-116 colon = tested on: HCT-116 colon
A498 renal = tested on: A498 renal
MDA-MB-435 = tested on: MDA-MB-435
SW-620 colon = tested on: SW-620 colon
COLO 205 colon = tested on: COLO 205 colon
SF-539 CNS = tested on: SF-539 CNS
SK-MEL-28 melanoma = tested on: SK-MEL-28 melanoma
HOP-92 NSCLC = tested on: HOP-92 NSCLC
U251 CNS = tested on: U251 CNS
NCI-H522 lung = tested on: NCI-H522 lung
DU-145 prostate = tested on: DU-145 prostate
EKVX NSCLC = tested on: EKVX NSCLC
IGROV1 ovarian = tested on: IGROV1 ovarian
OVCAR-4 ovarian = tested on: OVCAR-4 ovarian
RXF 393 renal = tested on: RXF 393 renal
OVCAR-5 ovarian = tested on: OVCAR-5 ovarian
HOP-62 NSCLC = tested on: HOP-62 NSCLC

Row | SMILES | TGI (T-47D breast) | TGI (OVCAR-3 ovarian) | TGI (MOLT-4 leukemia) | TGI (HCT-116 colon) | TGI (A498 renal) | TGI (MDA-MB-435) | TGI (SW-620 colon) | TGI (COLO 205 colon) | TGI (SF-539 CNS) | TGI (SK-MEL-28 melanoma) | TGI (HOP-92 NSCLC) | TGI (U251 CNS) | TGI (NCI-H522 lung) | TGI (DU-145 prostate) | TGI (EKVX NSCLC) | TGI (IGROV1 ovarian) | TGI (OVCAR-4 ovarian) | TGI (RXF 393 renal) | TGI (OVCAR-5 ovarian) | TGI (HOP-62 NSCLC)
1 | CC1(C)CCc2c(c(N=Nc3ccc(S(N)(=O)=O)cc3)c3ccccc3c2O)O1 | 49.3 µM | 32.1 µM | 82.7 µM | 34.7 µM | 7.28 µM | 22.5 µM | > 100 µM | 44.9 µM | 22.2 µM | 72.9 µM | 37.5 µM | 20.9 µM | 33.7 µM | 25 µM | 57.1 µM | 40.1 µM | 26 µM | 24.6 µM | 38.2 µM | 20.7 µM
2 | Oc1cc2c3c(c1)CCCN3CCC2 | > 10 µM | > 10 µM | > 10 µM | > 10 µM | > 10 µM | > 10 µM | > 10 µM | > 10 µM | > 10 µM | > 10 µM | > 10 µM | > 10 µM | > 10 µM | > 10 µM | > 10 µM | > 10 µM | > 10 µM | > 10 µM | > 10 µM | > 10 µM
3 | CCn1c(SCC(=O)N/N=C/c2ccccc2)nc2ccccc2c1=O | > 100 µM | > 100 µM | > 100 µM | > 100 µM | 65 µM | 17.6 µM | > 100 µM | > 100 µM | 38.4 µM | > 100 µM | > 79 µM | > 70.9 µM | 27.5 µM | > 100 µM | > 100 µM | > 93.1 µM | 72.8 µM | 27.2 µM | > 100 µM | > 78.3 µM
4 | O=c1[nH]/c(=C/c2ccc(OCc3ccccc3)cn2)c(=O)[nH]/c1=C/c1ccc(F)cc1 | > 55.6 µM | 1.42 µM | > 34.4 µM | > 100 µM | > 100 µM | 0.687 µM | > 44.6 µM | 6.75 µM | 19.3 µM | > 100 µM | > 37.7 µM | > 35.7 µM | 9.06 µM | > 34.8 µM | > 93.6 µM | 13.1 µM | > 82.1 µM | 1.95 µM | > 100 µM | > 35.5 µM
5 | c1ccc(C2=NCCN2)c(C2=NCCN2)c1 | > 100 µM | > 100 µM | > 100 µM | > 100 µM | > 100 µM | > 100 µM | > 100 µM | > 100 µM | > 100 µM | > 100 µM | > 100 µM | > 100 µM | > 100 µM | > 100 µM | > 100 µM | > 100 µM | > 100 µM | > 100 µM | > 100 µM | > 100 µM
